Laboratory results: patent US20220251163A1 (Sinopep-Allsino Biopharmaceutical Co., Ltd., priority 2019, published 2022)

Experiments:
ob/ob mice = assay: Blood glucose reducing experiment, single subcutaneous injection in ob/ob mice; type: in vivo; conditions: 100 μg/kg single s.c.; for Blood glucose at different time after administration, 0 h: 0 h (before administration); for Blood glucose at different time after administration, 0 h / Blood glucose at different time after administration, 2 h / Blood glucose at different time after administration, 4 h / Blood glucose at different time after administration, 6 h / Blood glucose at different time after administration, 10 h / Blood glucose at different time after administration, 24 h / AUC0-24 h Glu / Blood glucose at different time after administration, 34 h: X ± s, n = 7; for AUC0-24 h Glu: blood glucose curve area within 24 h; for AUC0-24 h Glu Decrease rate: versus model control group;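 on all read-outs here: random blood glucose read at each time point, decrease rate given as percentage fall versus the model control group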
Protocol: The mice in each group received random blood glucose value measurement before (0 h) administration and 2, 4, 6, 10 and 24 h after administration, and then the time for measuring the random blood glucose was adjusted and prolonged to 34, 48, 58 or 72 h after administration according to the blood glucose condition of the mice in each group. Meanwhile, the random weight of the mice in each group before (0 h) administration and 24 h after administration was weighed, and then the random weight of the mice corresponding to the random blood glucose measurement condition 48 or 72 h after administration was weighed. The blood glucose decrease rate, the blood glucose curve area (AUC0-24 h Glu) within 24 h after administration and the decrease rate were calculated according to the following formula.
Blood glucose decrease rate=(blood glucose in the model control group−blood glucose in the administration group)/blood glucose in the model control group×100%
BG0, BG2, BG4, BG6, BG10 and BG24 represented the blood glucose values before administration (0 h) and 2, 4, 6, 10 and 24 h after administration respectively.
AUC0-24 h Glu(mmol/Lh·r) decrease rate=(model control group AUC0-24 h Glu−administration group AUC0-24 h Glu/model control group AUC0-24 h Glu×100%
Experiments were carried out twice, at an interval of 8-10 days.

[1] = Effect on random weight of ob/ob mice after single subcutaneous injection; type: in vivo; conditions: 100 μg/kg single s.c., X ± s, n = 7
Protocol: The mice in each group received random blood glucose value measurement before (0 h) administration and 2, 4, 6, 10 and 24 h after administration, and then the time for measuring the random blood glucose was adjusted and prolonged to 34, 48, 58 or 72 h after administration according to the blood glucose condition of the mice in each group. Meanwhile, the random weight of the mice in each group before (0 h) administration and 24 h after administration was weighed, and then the random weight of the mice corresponding to the random blood glucose measurement condition 48 or 72 h after administration was weighed.

CC[C@H](C)[C@H](NC(=O)[C@H](CO)NC(=O)[C@H](Cc1ccc(O)cc1)NC(=O)[C@H](CC(=O)O)NC(=O)[C@H](CO)NC(=O)[C@@H](NC(=O)[C@H](Cc1ccccc1)NC(=O)[C@@H](NC(=O)CNC(=O)[C@H](CCC(=O)O)NC(=O)[C@H](C)NC(=O)[C@@H](N)Cc1ccc(O)cc1)[C@@H](C)O)[C@@H](C)CC)C(=O)N[C@@H](C)C(=O)N[C@@H](CCSC)C(=O)N[C@@H](CC(=O)O)C(=O)N[C@@H](CCCCN)C(=O)N[C@H](C(=O)N[C@@H](Cc1c[nH]cn1)C(=O)N[C@@H](CCC(N)=O)C(=O)N[C@@H](CCC(N)=O)C(=O)N[C@@H](CC(=O)O)C(=O)N[C@@H](Cc1ccccc1)C(=O)N[C@H](C(=O)N[C@@H](CC(N)=O)C(=O)N[C@@H](Cc1c[nH]c2ccccc12)C(=O)N[C@@H](CC(C)C)C(=O)N[C@@H](CC(C)C)C(=O)N[C@@H](C)C(=O)N[C@@H](CCC(N)=O)C(=O)N[C@@H](CCCCN)C(=O)NCC(=O)N[C@@H](CCCCN)C(=O)N[C@@H](CCCCN)C(=O)N[C@@H](CC(N)=O)C(=O)N[C@@H](CC(=O)O)C(=O)N[C@@H](Cc1c[nH]c2ccccc12)C(=O)N[C@@H](CCCCN)C(=O)N[C@@H](Cc1c[nH]cn1)C(=O)N[C@@H](CC(N)=O)C(=O)N[C@H](C(=O)N[C@H](C(=O)N[C@@H](CCC(N)=O)C(=O)O)[C@@H](C)O)[C@@H](C)CC)C(C)C)[C@@H](C)CC [GIP, Glucose-dependent inotropic peptide, reference compound]
Blood glucose at different time after administration, 0 h (ob/ob mice): 20.36 ± 0.74 mmol/L
Decrease rate of blood glucose at different time after administration, 2 h (ob/ob mice): 38.0%
Blood glucose at different time after administration, 2 h (ob/ob mice): 12.63 ± 1.70 mmol/L
Decrease rate of blood glucose at different time after administration, 4 h (ob/ob mice): 38.8%
Blood glucose at different time after administration, 4 h (ob/ob mice): 12.46 ± 1.66 mmol/L
Decrease rate of blood glucose at different time after administration, 6 h (ob/ob mice): 32.7%
Blood glucose at different time after administration, 6 h (ob/ob mice): 13.71 ± 0.86 mmol/L
Decrease rate of blood glucose at different time after administration, 10 h (ob/ob mice): 30.5%
Blood glucose at different time after administration, 10 h (ob/ob mice): 14.16 ± 1.24 mmol/L
Decrease rate of blood glucose at different time after administration, 24 h (ob/ob mice): 12.4%
Blood glucose at different time after administration, 24 h (ob/ob mice): 17.84 ± 0.87 mmol/L
AUC0-24 h Glu (ob/ob mice): 363.99 ± 14.21 mmol·h/L
AUC0-24 h Glu Decrease rate (ob/ob mice): 28.7%
Changes of random body weight at different time after administration, 0 h [1]: 0.0 ± 0.0 g
Random body weight at different time after administration, 0 h [1]: 43.5 ± 0.8 g
Changes of random body weight at different time after administration, 24 h [1]: 0.1 ± 0.1 g
Random body weight at different time after administration, 24 h [1]: 43.6 ± 0.8 g

Semaglutide [reference compound]
Blood glucose at different time after administration, 0 h (ob/ob mice): 20.71 ± 1.14 mmol/L
Decrease rate of blood glucose at different time after administration, 2 h (ob/ob mice): 56.0%
Blood glucose at different time after administration, 2 h (ob/ob mice): 9.12 ± 0.84 mmol/L
Decrease rate of blood glucose at different time after administration, 4 h (ob/ob mice): 56.7%
Blood glucose at different time after administration, 4 h (ob/ob mice): 8.96 ± 1.40 mmol/L
Decrease rate of blood glucose at different time after administration, 6 h (ob/ob mice): 59.8%
Blood glucose at different time after administration, 6 h (ob/ob mice): 8.32 ± 0.88 mmol/L
Decrease rate of blood glucose at different time after administration, 10 h (ob/ob mice): 60.0%
Blood glucose at different time after administration, 10 h (ob/ob mice): 8.29 ± 0.86 mmol/L
Decrease rate of blood glucose at different time after administration, 24 h (ob/ob mice): 59.0%
Blood glucose at different time after administration, 24 h (ob/ob mice): 8.49 ± 1.12 mmol/L
Decrease rate of blood glucose at different time after administration, 34 h (ob/ob mice): 56.0%
Blood glucose at different time after administration, 34 h (ob/ob mice): 9.12 ± 0.83 mmol/L
Decrease rate of blood glucose at different time after administration, 48 h (ob/ob mice): 13.9%
AUC0-24 h Glu (ob/ob mice): 215.87 ± 18.67 mmol·h/L
AUC0-24 h Glu Decrease rate (ob/ob mice): 57.7%
Changes of random body weight at different time after administration, 0 h [1]: 0.0 ± 0.0 g
Random body weight at different time after administration, 0 h [1]: 43.7 ± 1.0 g
Changes of random body weight at different time after administration, 24 h [1]: -2.9 ± 0.2 g
Random body weight at different time after administration, 24 h [1]: 40.7 ± 1.0 g
Changes of random body weight at different time after administration, 48 h [1]: -1.9 ± 0.2 g
Random body weight at different time after administration, 48 h [1]: 41.7 ± 1.0 g

CC[C@H](C)[C@H](NC(=O)[C@H](Cc1ccccc1)NC(=O)[C@H](CCC(=O)O)NC(=O)[C@H](CCCCN)NC(=O)[C@H](C)NC(=O)[C@H](C)NC(=O)[C@H](CCC(N)=O)NC(=O)CNC(=O)[C@H](CCC(=O)O)NC(=O)[C@H](CC(C)C)NC(=O)[C@H](Cc1ccc(O)cc1)NC(=O)[C@H](CO)NC(=O)[C@H](CO)NC(=O)[C@@H](NC(=O)[C@H](CC(=O)O)NC(=O)[C@H](CO)NC(=O)[C@@H](NC(=O)[C@H](Cc1ccccc1)NC(=O)[C@@H](NC(=O)CNC(=O)[C@H](CCC(=O)O)NC(=O)[C@H](C)NC(=O)[C@@H](N)Cc1c[nH]cn1)[C@@H](C)O)[C@@H](C)O)C(C)C)C(=O)N[C@@H](C)C(=O)N[C@@H](Cc1c[nH]c2ccccc12)C(=O)N[C@@H](CC(C)C)C(=O)N[C@H](C(=O)N[C@@H](CCCCN)C(=O)NCC(=O)N[C@@H](CCCNC(=N)N)C(N)=O)C(C)C [GLP-1, glucagon-like peptide-1, reference compound]
Blood glucose at different time after administration, 0 h (ob/ob mice): 20.30 ± 1.05 mmol/L
Decrease rate of blood glucose at different time after administration, 2 h (ob/ob mice): 40.6%
Blood glucose at different time after administration, 2 h (ob/ob mice): 12.06 ± 1.36 mmol/L
Decrease rate of blood glucose at different time after administration, 4 h (ob/ob mice): 41.9%
Blood glucose at different time after administration, 4 h (ob/ob mice): 11.79 ± 0.84 mmol/L
Decrease rate of blood glucose at different time after administration, 6 h (ob/ob mice): 35.9%
Blood glucose at different time after administration, 6 h (ob/ob mice): 13.02 ± 0.86 mmol/L
Decrease rate of blood glucose at different time after administration, 10 h (ob/ob mice): 30.9%
Blood glucose at different time after administration, 10 h (ob/ob mice): 14.03 ± 2.41 mmol/L
Decrease rate of blood glucose at different time after administration, 24 h (ob/ob mice): 11.1%
Blood glucose at different time after administration, 24 h (ob/ob mice): 18.04 ± 0.71 mmol/L
AUC0-24 h Glu (ob/ob mice): 359.61 ± 18.59 mmol·h/L
AUC0-24 h Glu Decrease rate (ob/ob mice): 29.6%
Changes of random body weight at different time after administration, 0 h [1]: 0.0 ± 0.0 g
Random body weight at different time after administration, 0 h [1]: 43.2 ± 0.7 g
Changes of random body weight at different time after administration, 24 h [1]: -0.1 ± 0.1 g
Random body weight at different time after administration, 24 h [1]: 43.1 ± 0.7 g

CC[C@H](C)[C@H](NC(=O)[C@H](CC(C)C)NC(=O)[C@H](Cc1c[nH]c2ccccc12)NC(=O)[C@H](CCC(N)=O)NC(=O)[C@@H](NC(=O)[C@H](Cc1ccccc1)NC(=O)[C@H](C)NC(=O)[C@H](CCCCNC(=O)COCCOCCNC(=O)COCCOCCNC(=O)CC[C@H](NC(=O)CCCCCCCCCCCCCCCCC(=O)O)C(=O)O)NC(=O)[C@H](CCC(N)=O)NC(=O)[C@H](C)NC(=O)[C@@H](NC(=O)[C@H](CCCCN)NC(=O)[C@H](CC(=O)O)NC(=O)[C@H](CC(C)C)NC(=O)C1(NC(=O)[C@@H](NC(=O)[C@H](CO)NC(=O)[C@H](Cc2ccc(O)cc2)NC(=O)[C@H](CC(=O)O)NC(=O)[C@H](CO)NC(=O)[C@@H](NC(=O)[C@H](Cc2ccccc2)NC(=O)[C@@H](NC(=O)CNC(=O)[C@H](CCC(=O)O)NC(=O)C(C)(C)NC(=O)[C@@H](N)Cc2ccc(O)cc2)[C@@H](C)O)[C@@H](C)O)[C@@H](C)CC)CCC1)[C@@H](C)CC)C(C)C)C(=O)N[C@@H](C)C(=O)NCC(=O)NCC(=O)N1CCC[C@H]1C(=O)N[C@@H](CO)C(=O)N[C@@H](CO)C(=O)NCC(=O)N[C@@H](C)C(=O)N1CCC[C@H]1C(=O)N1CCC[C@H]1C(=O)N1CCC[C@H]1C(=O)N[C@@H](CO)C(N)=O [ID NO: 8]
Blood glucose at different time after administration, 0 h (ob/ob mice): 20.36 ± 0.87 mmol/L
Decrease rate of blood glucose at different time after administration, 2 h (ob/ob mice): 48.1%
Blood glucose at different time after administration, 2 h (ob/ob mice): 10.56 ± 0.99 mmol/L
Decrease rate of blood glucose at different time after administration, 4 h (ob/ob mice): 50.9%
Blood glucose at different time after administration, 4 h (ob/ob mice): 9.99 ± 0.86 mmol/L
Decrease rate of blood glucose at different time after administration, 6 h (ob/ob mice): 51.7%
Blood glucose at different time after administration, 6 h (ob/ob mice): 9.83 ± 0.85 mmol/L
Decrease rate of blood glucose at different time after administration, 10 h (ob/ob mice): 53.1%
Blood glucose at different time after administration, 10 h (ob/ob mice): 9.54 ± 1.12 mmol/L
Decrease rate of blood glucose at different time after administration, 24 h (ob/ob mice): 41.3%
Blood glucose at different time after administration, 24 h (ob/ob mice): 11.95 ± 1.26 mmol/L
Decrease rate of blood glucose at different time after administration, 34 h (ob/ob mice): 29.6%
Blood glucose at different time after administration, 34 h (ob/ob mice): 14.33 ± 1.43 mmol/L
Decrease rate of blood glucose at different time after administration, 48 h (ob/ob mice): 15.7%
AUC0-24 h Glu (ob/ob mice): 260.46 ± 21.31 mmol·h/L
AUC0-24 h Glu Decrease rate (ob/ob mice): 49.0%
Changes of random body weight at different time after administration, 0 h [1]: 0.0 ± 0.0 g
Random body weight at different time after administration, 0 h [1]: 43.8 ± 0.7 g
Changes of random body weight at different time after administration, 24 h [1]: -1.1 ± 0.2 g
Random body weight at different time after administration, 24 h [1]: 42.7 ± 0.7 g
Changes of random body weight at different time after administration, 48 h [1]: -0.6 ± 0.1 g
Random body weight at different time after administration, 48 h [1]: 43.2 ± 0.7 g
